Results: paper PMC3183387 (Journal of the American Chemical Society, 2011)

Legend:
[1] = test system: Tyr181Cys Variant Strain of HIV-1; conditions: result in words; cited from earlier work
[2] = test system: variant HIV strain that encodes the Tyr181Cys (Y181C) mutation of HIV-RT; test: Anti-HIV activity against Tyr181Cys variant strain in MT-2 cells; format: cell-based, HIV-1; conditions: result in words

Row | Compound | activity towards Y181C containing variants [1] | activity against viral strains containing the Tyr181Cys (Y181C) mutation [2]
1 | CC(C)Nc1cccnc1N1CCN(C(=O)c2cc3cc(NS(C)(=O)=O)ccc3[nH]2)CC1 [delavirdine] | do not have useful activity | 
2 | Cc1ccnc2c1NC(=O)c1cccnc1N2C1CC1 [nevirapine] | do not have useful activity | no activity
